Experimental findings from patent US12497394B2, “Fused-cyclic pyrazolone formamide compound and preparation method therefor, pharmaceutical composition and use thereof” (SHANGHAI INSTITUTE OF MATERIA MEDICA, CHINESE ACADEMY OF …, priority 2018, dated 2025) are described below.

Where “and” joins values, the source holds several entries; their conditions need not be identical. Equal entries are not always repeated.

The target of assay [1] is receptor tyrosine kinase c-Met (Homo sapiens, UniProt P08581). The assay can be described thus: In vitro c-Met kinase inhibitory activity. The conditions noted are these: two values per compound; for inhibition at 0.001 µM / inhibition at 0.1 µM / inhibition at 0.01 µM: read-out: c-Met Inhibitory rate (%). The assay is classed as biochemical. An excerpt:
Experimental Example 3: Study of In Vitro c-Met Kinase Inhibitory Activity
Since the screening results of 369 kinase profiles of compound DC621044 has shown that the compound has a certain inhibitory activity on c-Met. We further screened some compounds for their inhibitory activity on c-Met kinase.

Assay [2] relates to BaF3/TEL-AXL cells. The assay can be described thus: Proliferation of BaF3/TEL-AXL cells. In kind it is cell-based. The following applies: two values per compound; for inhibition at 0.001 µM / inhibition at 0.01 µM / inhibition at 0.1 µM: BaF3/TEL-AXL, read-out: BaF3/TEL-AXL proliferation Inhibitory rate (%). An excerpt: Experimental Example 4: Effect of the Compound on the Proliferation Effect of BaF3/TEL-AXL Cells
Based on the above-mentioned enzyme activity research results, we further explored the effect of the compound on cell proliferation mediated by receptor tyrosine kinase AXL.

Chain of receptor tyrosine kinase c-Met (P08581 25-1390): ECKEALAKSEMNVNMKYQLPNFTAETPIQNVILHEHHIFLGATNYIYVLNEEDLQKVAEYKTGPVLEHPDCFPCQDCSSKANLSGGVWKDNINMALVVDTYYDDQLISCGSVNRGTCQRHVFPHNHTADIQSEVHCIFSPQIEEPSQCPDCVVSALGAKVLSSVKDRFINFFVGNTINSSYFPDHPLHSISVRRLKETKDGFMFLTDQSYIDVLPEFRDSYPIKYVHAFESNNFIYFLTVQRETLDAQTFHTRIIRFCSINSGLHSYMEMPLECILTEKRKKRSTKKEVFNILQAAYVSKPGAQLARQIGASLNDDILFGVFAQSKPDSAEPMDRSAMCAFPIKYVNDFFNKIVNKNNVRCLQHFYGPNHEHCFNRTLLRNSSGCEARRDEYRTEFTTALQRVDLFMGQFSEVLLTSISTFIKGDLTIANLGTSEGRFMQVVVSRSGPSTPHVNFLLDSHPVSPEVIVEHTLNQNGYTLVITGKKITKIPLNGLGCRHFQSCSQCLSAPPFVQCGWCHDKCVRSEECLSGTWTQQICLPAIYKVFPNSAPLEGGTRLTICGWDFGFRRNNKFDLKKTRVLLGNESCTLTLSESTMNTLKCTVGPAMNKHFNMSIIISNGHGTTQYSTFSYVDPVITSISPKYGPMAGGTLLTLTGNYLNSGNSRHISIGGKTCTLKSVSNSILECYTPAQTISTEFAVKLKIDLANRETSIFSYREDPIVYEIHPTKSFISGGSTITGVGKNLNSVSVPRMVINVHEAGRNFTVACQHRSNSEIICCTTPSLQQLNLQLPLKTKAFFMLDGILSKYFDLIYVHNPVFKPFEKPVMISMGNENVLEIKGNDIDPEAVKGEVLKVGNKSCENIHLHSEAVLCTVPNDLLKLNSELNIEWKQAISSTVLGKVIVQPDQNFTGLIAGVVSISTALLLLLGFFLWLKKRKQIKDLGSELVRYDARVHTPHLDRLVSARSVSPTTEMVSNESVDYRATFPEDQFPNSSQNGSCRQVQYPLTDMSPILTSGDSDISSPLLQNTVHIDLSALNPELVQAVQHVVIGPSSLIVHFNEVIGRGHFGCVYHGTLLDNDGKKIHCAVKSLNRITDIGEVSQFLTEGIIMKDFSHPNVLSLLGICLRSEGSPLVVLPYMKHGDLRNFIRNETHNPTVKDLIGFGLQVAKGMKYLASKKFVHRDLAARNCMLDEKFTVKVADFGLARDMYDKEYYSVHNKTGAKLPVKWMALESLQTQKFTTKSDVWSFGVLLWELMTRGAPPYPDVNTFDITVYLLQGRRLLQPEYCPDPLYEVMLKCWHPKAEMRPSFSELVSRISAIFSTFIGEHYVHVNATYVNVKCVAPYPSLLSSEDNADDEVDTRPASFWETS

Regarding `COCCOc1cc2ncnc(Oc3ccc(NC(=O)c4c5n(n(-c6ccc(F)cc6)c4=O)CCCC5)cc3C(F)(F)F)c2cc1OCCOC` [DC621102, N-(4-((6,7-bis(2-methoxyethoxy)quinazolin-4-yl)oxy)-3-trifluoromethylphenyl)-1-(4-fluorophenyl)-2-oxo-1,2,4,5,6,7-hexahydropyrazolo[1,5-a]pyridine-3-formamide], the “c-Met Inhibitory rate (%)” value in assay [1] (1 nM, 0.001 µM) was 17.2%; in assay [1] (10 nM, 0.01 µM), 77.2% and 53.4%; in assay [1] (100 nM, 0.1 µM) it was 93.9%. The inhibition at 0.001 µM in assay [1] (1 nM) turned out to be 25.6%. For the same compound, the inhibition at 0.1 µM in assay [1] (100 nM) came to 99.1%.
On to `COc1cc2ncnc(Oc3ccc(NC(=O)c4c5n(n(-c6ccccc6F)c4=O)CCCC5)cc3F)c2cc1OC` [DC621034, N-(4-((6,7-dimethoxyquinazoline-4-yl)oxy)-3-fluorophenyl)-1-(2-fluorophenyl)-2-oxo-1,2,4,5,6,7-hexahydropyrazolo[1,5-a]pyridine-3-formamide], for which the “c-Met Inhibitory rate (%)” value in assay [1] (1 nM, 0.001 µM) is 34.8% and 63.9%; in assay [1] (10 nM, 0.01 µM) it was 66.5%; in assay [1] (100 nM, 0.1 µM), 97.0%. Besides, the inhibition at 0.01 µM in assay [1] (10 nM) was determined as 48.3%. For the same compound, in assay [1] (100 nM), the inhibition at 0.1 µM stood at 97.5%.
Take `O=C(Nc1ccc(Oc2ncnc3[nH]cc(-c4ccccc4)c23)c(F)c1)c1c2n(n(-c3ccccc3F)c1=O)CCCC2` [DC621058, N-(3-fluoro-4-((5-phenyl-7H-pyrrolo[2,3-d]pyrimidin-4-yl)oxy)phenyl)-1-(2-fluorophenyl)-2-oxo-1,2,4,5,6,7-hexahydropyrazolo[1,5-a]pyridine-3-formamide]: the “c-Met Inhibitory rate (%)” value was 45.1% in assay [1] (10 nM, 0.01 µM) and 83.6% in assay [1] (100 nM, 0.1 µM). In assay [1] (10 nM), the inhibition at 0.01 µM was determined as 54.6%. The inhibition at 0.1 µM in assay [1] (100 nM) stood at 89.2%.
`COc1cc2ncnc(Oc3ccc(NC(=O)c4c5n(n(-c6ccc(F)cc6)c4=O)CCCC5)c(F)c3)c2cc1OC` [DC621059, N-(4-((6,7-dimethoxyquinazoline-4-yl)oxy)-2-fluorophenyl)-1-(4-fluorophenyl)-2-oxo-1,2,4,5,6,7-hexahydropyrazolo[1,5-a]pyridine-3-formamide]: the “BaF3/TEL-AXL proliferation Inhibitory rate (%)” value in assay [2] (1 nM, 0.001 µM) was 78.3%; in assay [2] (10 nM, 0.01 µM) it was 82.7%; in assay [2] (100 nM, 0.1 µM), 84.2%. The inhibition at 0.001 µM in assay [2] (1 nM) was 68.4%. In addition, the inhibition at 0.01 µM in assay [2] (10 nM) was found to be 71.4%. Also, the inhibition at 0.1 µM in assay [2] (100 nM) is 83.7%.
In the case of `COc1cc2ncnc(Oc3ccc(NC(=O)c4c5n(n(-c6cc(F)ccc6F)c4=O)CCCC5)cc3)c2cc1OC` [DC621022, 1-(2,5-difluorophenyl)-N-(4-((6,7-dimethoxyquinazoline-4-yl)oxy)phenyl)-2-oxo-1,2,4,5,6,7-hexahydropyrazolo[1,5-a]pyridine-3-formamide], the “c-Met Inhibitory rate (%)” value was 51.1% in assay [1] (1 nM, 0.001 µM); 57.0% in assay [1] (10 nM, 0.01 µM); 96.5% in assay [1] (100 nM, 0.1 µM). Further, the inhibition at 0.001 µM in assay [1] (1 nM) came to 35.4%; in assay [2] (1 nM), 66.3%. The inhibition at 0.01 µM in assay [1] (10 nM) is 41.7%; in assay [2] (10 nM), 71.8%. For the same compound, the figures for the inhibition at 0.1 µM in assay [1] (100 nM) and in assay [2] (100 nM) were 81.9% and 83.2%, respectively. In addition, the “BaF3/TEL-AXL proliferation Inhibitory rate (%)” value in assay [2] (1 nM, 0.001 µM) is on record as 48.3%; in assay [2] (10 nM, 0.01 µM) it was 58.0%; in assay [2] (100 nM, 0.1 µM), 80.9%.
As for `COc1cc2ncnc(Oc3ccc(NC(=O)c4c5n(n(-c6ccccc6F)c4=O)CCCC5)c(F)c3)c2cc1OC` [DC621056, N-(4-((6,7-dimethoxyquinazoline-4-yl)oxy)-2-fluorophenyl)-1-(2-fluorophenyl)-2-oxo-1,2,4,5,6,7-hexahydropyrazolo[1,5-a]pyridine-3-formamide], the “c-Met Inhibitory rate (%)” value is 72.8% and 49.8% in assay [1] (10 nM, 0.01 µM); 94.1% in assay [1] (100 nM, 0.1 µM). Moreover, the inhibition at 0.1 µM in assay [1] (100 nM) came to 92%; in assay [2] (100 nM), 86.6%. In addition, the “BaF3/TEL-AXL proliferation Inhibitory rate (%)” value in assay [2] (1 nM, 0.001 µM) worked out at 58.8%; in assay [2] (10 nM, 0.01 µM), 74.1%; in assay [2] (100 nM, 0.1 µM) it was 84.9%. Moreover, the inhibition at 0.001 µM in assay [2] (1 nM) was 45.3%. Further, the inhibition at 0.01 µM in assay [2] (10 nM) was 70%.
For `O=C(Nc1ccc(Oc2ncnc3[nH]cc(-c4ccccc4)c23)c(F)c1)c1c2n(n(-c3cc(F)ccc3F)c1=O)CCCC2` [DC621055, 1-(2,5-difluorophenyl)-N-(3-fluoro-4-((5-phenyl-7H-pyrrolo[2,3-d]pyrimidin-4-yl)oxy)phenyl)-2-oxo-1,2,4,5,6,7-hexahydropyrazolo[1,5-a]pyridine-3-formamide], the “c-Met Inhibitory rate (%)” value in assay [1] (1 nM, 0.001 µM) was 30.8% and 53.9%; in assay [1] (10 nM, 0.01 µM), 74.2%; in assay [1] (100 nM, 0.1 µM) it was 100%. For the same compound, the inhibition at 0.01 µM in assay [1] (10 nM) is 68.2%. For the same compound, in assay [1] (100 nM), the inhibition at 0.1 µM was determined as 96%.
`COc1cc2ncnc(Oc3ccc(NC(=O)c4c5n(n(-c6ccccc6)c4=O)CCCC5)cc3F)c2cc1OC` [DC621011, N-(4-((6,7-dimethoxyquinazoline-4-yl)oxy)-3-fluorophenyl)-2-oxo-1-phenyl-1,2,4,5,6,7-hexahydropyrazolo[1,5-a]pyridine-3-formamide]: the “c-Met Inhibitory rate (%)” value in assay [1] (10 nM, 0.01 µM) amounted to 89.2%; in assay [1] (100 nM, 0.1 µM) it was 100%. Further, the figures for the inhibition at 0.01 µM in assay [1] (10 nM) and in assay [2] (10 nM) were 74.4% and 60.5%, respectively. For the same compound, the inhibition at 0.1 µM in assay [1] (100 nM) is 86.6%; in assay [2] (100 nM), 84.8%. The “BaF3/TEL-AXL proliferation Inhibitory rate (%)” value worked out at 56.1% in assay [2] (10 nM, 0.01 µM) and 83.9% in assay [2] (100 nM, 0.1 µM).
On to `COc1cc2ncnc(Oc3ccc(NC(=O)c4c5n(n(-c6cc(F)ccc6F)c4=O)CCCC5)c(F)c3)c2cc1OC` [DC621053, 1-(2,5-difluorophenyl)-N-(4-((6,7-dimethoxyquinazoline-4-yl)oxy)-2-fluorophenyl)-2-oxo-1,2,4,5,6,7-hexahydropyrazolo[1,5-a]pyridine-3-formamide], for which the “c-Met Inhibitory rate (%)” value in assay [1] (10 nM, 0.01 µM) was 68.5%; in assay [1] (100 nM, 0.1 µM), 98.7%. For the same compound, the inhibition at 0.01 µM worked out at 50.9% in assay [1] (10 nM) and 67.5% in assay [2] (10 nM). The inhibition at 0.1 µM worked out at 92.8% in assay [1] (100 nM) and 83.8% in assay [2] (100 nM). Also, the “BaF3/TEL-AXL proliferation Inhibitory rate (%)” value in assay [2] (1 nM, 0.001 µM) was found to be 56.7%; in assay [2] (10 nM, 0.01 µM) it was 71.6%; in assay [2] (100 nM, 0.1 µM), 84.2%. Further, the inhibition at 0.001 µM in assay [2] (1 nM) is 65.3%.
For `COc1cc2ncnc(Oc3ccc(NC(=O)c4c5n(n(-c6cc(F)ccc6F)c4=O)CCCC5)cc3F)c2cc1OC` [DC621023, 1-(2,5-difluorophenyl)-N-(4-((6,7-dimethoxyquinazoline-4-yl)oxy)-3-fluorophenyl)-2-oxo-1,2,4,5,6,7-hexahydropyrazolo[1,5-a]pyridine-3-formamide], the “c-Met Inhibitory rate (%)” value in assay [1] (1 nM, 0.001 µM) came out at 60.9%; in assay [1] (10 nM, 0.01 µM) it was 92.3%; in assay [1] (100 nM, 0.1 µM), 100%. For the same compound, the inhibition at 0.001 µM in assay [1] (1 nM) amounted to 58.9%. Also, the inhibition at 0.01 µM in assay [1] (10 nM) was determined as 80.9%; in assay [2] (10 nM) it was 66.5%. Besides, the inhibition at 0.1 µM in assay [1] (100 nM) is 99.2%; in assay [2] (100 nM), 76.8%. Also, the “BaF3/TEL-AXL proliferation Inhibitory rate (%)” value in assay [2] (1 nM, 0.001 µM) is 62.2% and 41.4%; in assay [2] (10 nM, 0.01 µM), 67.6%; in assay [2] (100 nM, 0.1 µM), 65.0%.
For `O=C(Nc1ccc(Oc2ncnc3[nH]cc(-c4ccccc4)c23)c(F)c1)c1c2n(n(-c3ccccc3)c1=O)CCCC2` [DC621052, N-(3-fluoro-4-((5-phenyl-7H-pyrrolo[2,3-d]pyrimidin-4-yl)oxy)phenyl)-2-oxo-1-phenyl-1,2,4,5,6,7-hexahydropyrazolo[1,5-a]pyridine-3-formamide], the “c-Met Inhibitory rate (%)” value was 43.0% in assay [1] (1 nM, 0.001 µM); 55.1% and 85.0% in assay [1] (10 nM, 0.01 µM); 94.1% in assay [1] (100 nM, 0.1 µM). Besides, the inhibition at 0.001 µM in assay [1] (1 nM) was found to be 32.7%. The inhibition at 0.1 µM in assay [1] (100 nM) turned out to be 84.5%.
Regarding `COc1cc2nccc(Oc3ccc(NC(=O)c4c5n(n(-c6ccccc6)c4=O)CCCC5)cc3F)c2cc1OC` [DC621001, N-(4-((6,7-dimethoxyquinoline-4-yl)oxy)-3-fluorophenyl)-2-oxo-1-phenyl-1,2,4,5,6,7-hexahydropyrazolo[1,5-a]pyridine-3-formamide], the “c-Met Inhibitory rate (%)” value in assay [1] (1 nM, 0.001 µM) was 51.7% and 72.4%; in assay [1] (10 nM, 0.01 µM), 97.6%; in assay [1] (100 nM, 0.1 µM) it was 100%. In addition, the inhibition at 0.01 µM in assay [1] (10 nM) amounted to 84.7%; in assay [2] (10 nM), 54.9%. The results for the inhibition at 0.1 µM in assay [1] (100 nM) and in assay [2] (100 nM) were 92% and 82%, respectively. In addition, the “BaF3/TEL-AXL proliferation Inhibitory rate (%)” value in assay [2] (10 nM, 0.01 µM) is listed as 59.1%; in assay [2] (100 nM, 0.1 µM) it was 71.3%.
Consider `COc1cc2ncnc(Oc3ccc(NC(=O)c4c5n(n(-c6ccc(F)cc6)c4=O)CCCC5)cc3C(F)(F)F)c2cc1OC` [DC621101, N-(4-((6,7-dimethoxyquinazoline-4-yl)oxy)-3-trifluoromethylphenyl)-1-(4-fluorophenyl)-2-oxo-1,2,4,5,6,7-hexahydropyrazolo[1,5-a]pyridine-3-formamide], for which the “c-Met Inhibitory rate (%)” value was 19.6% in assay [1] (1 nM, 0.001 µM); 60.9% in assay [1] (10 nM, 0.01 µM); 91.0% in assay [1] (100 nM, 0.1 µM). Also, the inhibition at 0.001 µM in assay [1] (1 nM) turned out to be 27.2%. Also, the inhibition at 0.01 µM in assay [1] (10 nM) amounted to 75%. Also, the inhibition at 0.1 µM in assay [1] (100 nM) is 96.5%.
